Bridge positions count the residues as written; N and C are the ends. Ends that are not written are not given here.

Series [1] has as its target T1, porcine pancreatic α-amylase (PPA) (Sus scrofa, UniProt P00690).
T1 construct: purchased Sigma Aldrich A4268
T1 sequence (P00690 16-511): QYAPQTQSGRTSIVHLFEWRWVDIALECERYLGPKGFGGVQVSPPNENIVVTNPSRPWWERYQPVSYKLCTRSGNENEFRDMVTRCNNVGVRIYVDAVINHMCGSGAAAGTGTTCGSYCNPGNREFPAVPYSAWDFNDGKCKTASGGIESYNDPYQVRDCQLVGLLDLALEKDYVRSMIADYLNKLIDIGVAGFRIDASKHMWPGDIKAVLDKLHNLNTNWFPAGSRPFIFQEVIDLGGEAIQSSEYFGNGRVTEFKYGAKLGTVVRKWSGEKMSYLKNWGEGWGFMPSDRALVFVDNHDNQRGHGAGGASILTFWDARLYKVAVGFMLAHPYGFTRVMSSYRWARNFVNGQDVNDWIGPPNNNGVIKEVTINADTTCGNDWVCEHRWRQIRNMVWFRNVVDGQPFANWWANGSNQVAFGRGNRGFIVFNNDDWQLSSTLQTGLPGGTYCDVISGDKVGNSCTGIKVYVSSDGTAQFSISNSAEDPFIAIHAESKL
Nature of the series: Determination of Ki against porcine pancreatic α-amylase (Morrison). The format is biochemical. Particulars: 37 °C, 50 mM sodium phosphate, 100 mM NaCl, pH 7.0; CNPG3 1 mM (KM 0.71 mM), nominal [E] 20 nM; 10 min pre-incubation; 405 nm; Morrison fit, competitive mode assumed; mean ± SE (n = 3). The protocol: (§1) For a quantitative assessment of tight-binding inhibitor potency, Morrison’s method was applied. This method uses the Morrison quadratic equation (Equation (1)) for fitting inhibitor-response data and determining Ki app as a nonlinear regression parameter. (1) υ/υo=1−([E]+[I]+Kiapp)−([E]+[I]+Kiapp)^2−4[E][I]/2[E]o
(§2) Kinetic assays were carried out at 37 °C in 50 mM sodium phosphate and 100 mM sodium chloride (pH 7.0). 2-Chloro-4-nitrophenyl-α-maltotrioside (CNPG3) (Sigma Aldrich, St. Louis, MO, USA) was used as the substrate and the optical absorption of the 2-chloro-4-nitrophenol was measured at 405 nm. Reactions were run with final [CNPG3] = 1 mM ([S]/KM = 1.41, KM = 0.71 mM), nominal [E] = 20 nM for PPA, [CNPG3] = 3.3 mM ([S]/KM = 0.97, KM = 3.4 mM), and nominal [E] = 100 nM for HSA to provide sufficient analytical signal. Inhibitor dilution schemes were optimized considering recommendations in [34].
(§3) The enzyme was pre-incubated with the inhibitor for 10 minutes before the addition of substrate which launched the reaction. Reactions were monitored on an xMark microplate spectrophotometer (BioRad, USA) in the kinetic mode for 30 min. The initial linear steady state region provided initial rate values for each inhibitor concentration (υ), along with uninhibited rate values (υo). Measurements were run in triplicate. […]

Series [2] concerns the target human salivary α-amylase (HSA) (Homo sapiens, UniProt P0DUB6). Nature of the series: Determination of Ki against human saliva α-amylase (Morrison). Particulars: 37 °C, 50 mM sodium phosphate, 100 mM NaCl, pH 7.0; CNPG3 3.3 mM (KM 3.4 mM), nominal [E] 100 nM; 10 min pre-incubation; 405 nm; Morrison fit, competitive mode assumed; mean ± SE (n = 3); read-out: Ki against HSA. The format is biochemical. The protocol:
as §1, §2, §3

A further series concerns Shaker IR. Description: Two-electrode voltage-clamp. The settings on record: 10 µM; insect channel; Xenopus laevis oocytes; 18–22 °C. The format is cell-based, Drosophila. The source says: For the expression of Nav channels (mammalian rNav1.2, rNav1.4, hNav1.5, mNav1.6 and hNav1.8 channels; the insect channel BgNav1 from Blattella germanica; and the auxiliary subunits rβ1, hβ1, and TipE) and Kv channels (mammalian rKv1.1, rKv1.2, hKv1.3, rKv1.4, rKv1.5, rKv1.6, rKv2.1, hKv3.1, rKv4.2, hKv10.1, and hERG; and Drosophila Shaker’s IR) in Xenopus laevis oocytes; the linearized plasmids were transcribed using the T7 or SP6 mMESSAGE-mMACHINE transcription kit (Ambion, Carlsbad, CA, USA). The harvesting of stage V–VI oocytes from anesthetized female Xenopus laevis frog was previously described. Oocytes were injected with 50 nL of cRNA at a concentration of 1 ng/nL using a microinjector (Drummond Scientific, Broomall, PA, USA). The oocytes were incubated in a solution containing 96-mM NaCl, 2-mM KCl, 1.8-mM CaCl2, 2-mM MgCl2, and 5-mM HEPES (pH 7.4), supplemented with 50 mg/L gentamycin sulfate.
Two-electrode voltage-clamp recordings were performed at room temperature (18–22 °C) using a Geneclamp 500 amplifier (Molecular Devices, Downingtown, PA, USA) controlled by a pClamp data acquisition system (Axon Instruments, Union City, CA, USA). Whole cell currents from oocytes were recorded 1–4 days after injection. […] All data were analyzed using pClamp Clampfit 10.0 (Molecular Devices, Downingtown, PA, USA) and Origin 7.5 software (Originlab, Northampton, MA, USA).
In general terms: Two-electrode voltage clamp holds a large cell at a set potential and records current.

Sequence of human salivary α-amylase (HSA) (P0DUB6 16-511): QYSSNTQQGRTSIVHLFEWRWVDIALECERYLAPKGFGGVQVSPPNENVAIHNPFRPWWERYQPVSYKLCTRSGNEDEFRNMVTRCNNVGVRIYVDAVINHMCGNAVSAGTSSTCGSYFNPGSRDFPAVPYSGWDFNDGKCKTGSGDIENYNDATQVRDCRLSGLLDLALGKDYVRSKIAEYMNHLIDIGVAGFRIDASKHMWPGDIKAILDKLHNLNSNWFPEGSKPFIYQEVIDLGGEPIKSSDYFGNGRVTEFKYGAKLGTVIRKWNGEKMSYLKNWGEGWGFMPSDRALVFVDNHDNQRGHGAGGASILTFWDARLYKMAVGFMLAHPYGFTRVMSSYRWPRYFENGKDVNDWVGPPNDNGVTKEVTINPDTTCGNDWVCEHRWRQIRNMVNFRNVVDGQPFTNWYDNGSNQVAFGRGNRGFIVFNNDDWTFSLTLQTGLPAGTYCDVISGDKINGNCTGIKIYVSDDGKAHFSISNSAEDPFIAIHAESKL

What is called Ki is the dissociation constant of the complex between target and ligand, obtained from inhibition or displacement. Regarding “SEGTSCYIYHGVYGICKAKCAEDMKAMAGMGVCEGDLCCYKTPW (disulfide 6-38, 16-33, 20-39) [r-magnificamide]”, the Ki in series [1] came to 0.17 ± 0.06 nM; in series [2] it was 7.7 ± 1.5 nM. Moreover, the “Channel modulating activity, Shaker” value in the series on Shaker IR is reported as “Not active”.

Values taken from paper PMC6835510, “Magnificamide, a β-Defensin-Like Peptide from the Mucus of the Sea Anemone Heteractis magnifica, Is a Strong Inhibitor of Mammalian α-Amylases” (Marine Drugs, 2019).
